Experimental data from publication PMC9386018, “A lymphatic-absorbed multi-targeted kinase inhibitor for myelofibrosis therapy” (Nature Communications, 2022).

Tests used:
[1] = biological target: 321 human protein kinases (Homo sapiens, UniProt O14986); assay: Single-point broad panel kinome screening (SelectScreen Z'-LYTE and Adapta); format: biochemical; conditions: PIP5K1B; […] LP-182; [ATP] 10 μM
Experimental: (§1) Quantitation of kinase inhibition was carried out by Life Technologies (Madison, WI) using the SelectScreen profiling platforms Z’-LYTE^TM and Adapta^TM. Single-point broad panel kinome screening was performed at 2.5 µM LP-182 against all kinases within the Z’-LYTE^TM and Adapta^TM assays (321 kinase isoforms, holoenzymes, or mutant variants). The average percent kinase inhibition from replicate data was ranked low to high, converted to a compatible identifier format, then input into Coral Human Kinome Visualization software for presentation analysis. […] Scaling of evolutionary distance for PI kinases is only relative and is based on literature analysis[62],[63]. Average percent kinome inhibition values from replicate data are supplied in Source Data file. […]. Corrected data was normalized to vehicle treated control values, and dose response percent kinase activity was analyzed by non-linear regression for determination of IC50 values.

[2] = biological target: 321 human protein kinases (Homo sapiens, UniProt O15530); assay: as above; format: biochemical; conditions: PDK1; […] LP-182; [ATP] 100 μM
Experimental: as §1

[3] = biological target: 321 human protein kinases (Homo sapiens, UniProt O60331); assay: as above; format: biochemical; conditions: PIP5K1C; […] LP-182; [ATP] 10 μM
Experimental: as §1

[4] = biological target: 321 human protein kinases (Homo sapiens, UniProt P42356); assay: as above; format: biochemical; conditions: PI4KA (PI4K alpha); […] LP-182; [ATP] 10 μM
Experimental: as §1

[5] = biological target: 321 human protein kinases (Homo sapiens, UniProt P45983); assay: as above; format: biochemical; conditions: MAPK8 (JNK1); […] LP-182; [ATP] 100 μM
Experimental: as §1

[6] = biological target: 321 human protein kinases (Homo sapiens, UniProt P45984); assay: as above; format: biochemical; conditions: MAPK9 (JNK2); […] LP-182; [ATP] 100 μM
Experimental: as §1

[7] = biological target: 321 human protein kinases (Homo sapiens, UniProt P52564); assay: as above; format: biochemical; conditions: MAP2K6 (MKK6); […] LP-182; [ATP] 100 μM
Experimental: as §1

[8] = biological target: 321 human protein kinases (Homo sapiens, UniProt Q16539); assay: as above; format: biochemical; conditions: MAPK14 (p38 alpha); […] LP-182; [ATP] 100 μM
Experimental: as §1

[9] = biological target: 321 human protein kinases (Homo sapiens, UniProt Q99755); assay: as above; format: biochemical; conditions: PIP5K1A; […] LP-182; [ATP] 10 μM
Experimental: as §1

[10] = test system: GFP-positive MPL^W515L cells; assay: MPL^W515L MF mouse model Study 2: GFP-positive cell frequencies; format: in vivo; conditions: Study 2, MPL^W515L mice, oral 400 mg kg^−1 daily, 14 d
Experimental: The human megakaryoblastic cell line, SET-2 (ATCC), was maintained in RPMI 1640 supplemented with 20% FBS and incubated for 16 h at 10^6 cells mL^−1 with LP-182 or vehicle (DMSO; dimethyl sulfoxide), then washed in ice-cold PBS, and collected for flow cytometry analysis. Single-cell suspensions of mouse spleen were prepared from MPL^W515L MF mice (below) in RPMI 1640 supplemented with 5% FCS. Red blood cells were lysed by ammonium chloride-mediated red cell lysis (RCL) buffer and passed through a nylon mesh, and then cells were counted. For intracellular phospho-protein staining, SET-2 or spleen cells were fixed and then permeabilized using BD Phospho-flow fixation buffer and Perm-Buffer III (BD biosciences) according to the manufacturer’s protocol. Intracellular phospho-protein staining was performed using fluorochrome-conjugated antibodies, pAKT (pS473)-Alexa Fluor 647 (MB89-61) or pERK1/2 (pT202/pY204)-Alexa Fluor 647 (20 A). […] Flow cytometry was performed on a FACS Fortessa (Becton, Dickinson and Co.) using FACSDiVa software, and data analyzed using FlowJo software (Tree Star). […]
Generation of the MPL^W515L mutant MF mouse model was similar to previously described methods. […] Development of MF was evaluated by spleen volumes using MRI beginning ~14 d following bone marrow transplantation (BMT) as outlined below, continuing weekly until end of the study. […]

Sequence of 321 human protein kinases (Homo sapiens, UniProt O14986) (O14986 whole entry, canonical isoform): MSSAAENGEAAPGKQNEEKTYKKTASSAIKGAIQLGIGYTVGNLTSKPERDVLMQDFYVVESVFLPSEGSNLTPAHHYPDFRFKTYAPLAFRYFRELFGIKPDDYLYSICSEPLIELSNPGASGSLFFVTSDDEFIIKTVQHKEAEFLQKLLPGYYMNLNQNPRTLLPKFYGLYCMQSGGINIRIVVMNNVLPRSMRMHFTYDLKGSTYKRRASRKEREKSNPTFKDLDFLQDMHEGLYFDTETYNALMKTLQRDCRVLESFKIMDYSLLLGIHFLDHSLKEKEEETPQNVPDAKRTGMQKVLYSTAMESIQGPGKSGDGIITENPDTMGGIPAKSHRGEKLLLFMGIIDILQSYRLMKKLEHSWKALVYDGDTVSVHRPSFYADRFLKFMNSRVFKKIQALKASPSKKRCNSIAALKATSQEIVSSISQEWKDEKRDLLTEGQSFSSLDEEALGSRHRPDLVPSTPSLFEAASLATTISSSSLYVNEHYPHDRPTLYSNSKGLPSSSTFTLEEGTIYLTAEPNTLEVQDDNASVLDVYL
Sequence of 321 human protein kinases (Homo sapiens, UniProt Q99755) (Q99755 whole entry): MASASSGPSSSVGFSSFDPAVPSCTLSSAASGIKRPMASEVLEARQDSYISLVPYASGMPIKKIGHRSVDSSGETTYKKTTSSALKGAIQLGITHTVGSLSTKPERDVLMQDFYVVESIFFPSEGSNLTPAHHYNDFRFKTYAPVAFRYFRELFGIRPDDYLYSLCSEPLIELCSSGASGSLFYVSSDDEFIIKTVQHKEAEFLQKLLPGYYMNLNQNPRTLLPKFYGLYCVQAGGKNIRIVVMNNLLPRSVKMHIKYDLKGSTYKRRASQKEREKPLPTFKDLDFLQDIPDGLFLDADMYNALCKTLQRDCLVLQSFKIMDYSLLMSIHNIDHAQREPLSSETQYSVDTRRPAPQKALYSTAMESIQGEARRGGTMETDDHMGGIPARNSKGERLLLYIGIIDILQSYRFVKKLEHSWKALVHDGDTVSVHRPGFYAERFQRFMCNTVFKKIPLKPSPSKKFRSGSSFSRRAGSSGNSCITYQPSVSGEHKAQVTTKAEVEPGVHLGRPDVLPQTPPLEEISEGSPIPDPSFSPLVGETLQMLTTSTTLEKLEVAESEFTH
Sequence of 321 human protein kinases (Homo sapiens, UniProt O15530) (O15530 whole entry): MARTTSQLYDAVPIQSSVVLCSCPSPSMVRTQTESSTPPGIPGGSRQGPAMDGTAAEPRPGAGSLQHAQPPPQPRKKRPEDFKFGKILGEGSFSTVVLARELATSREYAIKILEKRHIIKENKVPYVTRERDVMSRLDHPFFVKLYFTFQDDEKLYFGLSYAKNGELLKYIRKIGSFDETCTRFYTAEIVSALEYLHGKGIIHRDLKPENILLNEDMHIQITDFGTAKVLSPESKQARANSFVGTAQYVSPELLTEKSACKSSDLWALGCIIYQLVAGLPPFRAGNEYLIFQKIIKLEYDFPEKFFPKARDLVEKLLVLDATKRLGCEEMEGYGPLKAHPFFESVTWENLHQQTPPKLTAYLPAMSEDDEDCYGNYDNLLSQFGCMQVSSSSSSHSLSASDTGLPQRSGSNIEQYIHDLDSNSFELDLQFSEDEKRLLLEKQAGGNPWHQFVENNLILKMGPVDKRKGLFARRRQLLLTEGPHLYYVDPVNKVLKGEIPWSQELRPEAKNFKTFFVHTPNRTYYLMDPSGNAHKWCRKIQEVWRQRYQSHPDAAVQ
Sequence of 321 human protein kinases (Homo sapiens, UniProt Q16539) (Q16539 whole entry): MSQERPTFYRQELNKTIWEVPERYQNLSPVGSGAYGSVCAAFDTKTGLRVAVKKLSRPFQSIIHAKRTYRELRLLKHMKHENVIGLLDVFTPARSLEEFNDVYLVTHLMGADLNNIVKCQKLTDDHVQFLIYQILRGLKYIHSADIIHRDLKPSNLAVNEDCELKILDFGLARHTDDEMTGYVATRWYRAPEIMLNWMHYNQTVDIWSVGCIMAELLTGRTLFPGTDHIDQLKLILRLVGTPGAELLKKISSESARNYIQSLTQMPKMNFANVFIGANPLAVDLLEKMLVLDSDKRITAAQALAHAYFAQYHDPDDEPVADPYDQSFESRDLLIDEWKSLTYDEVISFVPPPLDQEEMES
Sequence of 321 human protein kinases (Homo sapiens, UniProt P42356) (P42356 whole entry): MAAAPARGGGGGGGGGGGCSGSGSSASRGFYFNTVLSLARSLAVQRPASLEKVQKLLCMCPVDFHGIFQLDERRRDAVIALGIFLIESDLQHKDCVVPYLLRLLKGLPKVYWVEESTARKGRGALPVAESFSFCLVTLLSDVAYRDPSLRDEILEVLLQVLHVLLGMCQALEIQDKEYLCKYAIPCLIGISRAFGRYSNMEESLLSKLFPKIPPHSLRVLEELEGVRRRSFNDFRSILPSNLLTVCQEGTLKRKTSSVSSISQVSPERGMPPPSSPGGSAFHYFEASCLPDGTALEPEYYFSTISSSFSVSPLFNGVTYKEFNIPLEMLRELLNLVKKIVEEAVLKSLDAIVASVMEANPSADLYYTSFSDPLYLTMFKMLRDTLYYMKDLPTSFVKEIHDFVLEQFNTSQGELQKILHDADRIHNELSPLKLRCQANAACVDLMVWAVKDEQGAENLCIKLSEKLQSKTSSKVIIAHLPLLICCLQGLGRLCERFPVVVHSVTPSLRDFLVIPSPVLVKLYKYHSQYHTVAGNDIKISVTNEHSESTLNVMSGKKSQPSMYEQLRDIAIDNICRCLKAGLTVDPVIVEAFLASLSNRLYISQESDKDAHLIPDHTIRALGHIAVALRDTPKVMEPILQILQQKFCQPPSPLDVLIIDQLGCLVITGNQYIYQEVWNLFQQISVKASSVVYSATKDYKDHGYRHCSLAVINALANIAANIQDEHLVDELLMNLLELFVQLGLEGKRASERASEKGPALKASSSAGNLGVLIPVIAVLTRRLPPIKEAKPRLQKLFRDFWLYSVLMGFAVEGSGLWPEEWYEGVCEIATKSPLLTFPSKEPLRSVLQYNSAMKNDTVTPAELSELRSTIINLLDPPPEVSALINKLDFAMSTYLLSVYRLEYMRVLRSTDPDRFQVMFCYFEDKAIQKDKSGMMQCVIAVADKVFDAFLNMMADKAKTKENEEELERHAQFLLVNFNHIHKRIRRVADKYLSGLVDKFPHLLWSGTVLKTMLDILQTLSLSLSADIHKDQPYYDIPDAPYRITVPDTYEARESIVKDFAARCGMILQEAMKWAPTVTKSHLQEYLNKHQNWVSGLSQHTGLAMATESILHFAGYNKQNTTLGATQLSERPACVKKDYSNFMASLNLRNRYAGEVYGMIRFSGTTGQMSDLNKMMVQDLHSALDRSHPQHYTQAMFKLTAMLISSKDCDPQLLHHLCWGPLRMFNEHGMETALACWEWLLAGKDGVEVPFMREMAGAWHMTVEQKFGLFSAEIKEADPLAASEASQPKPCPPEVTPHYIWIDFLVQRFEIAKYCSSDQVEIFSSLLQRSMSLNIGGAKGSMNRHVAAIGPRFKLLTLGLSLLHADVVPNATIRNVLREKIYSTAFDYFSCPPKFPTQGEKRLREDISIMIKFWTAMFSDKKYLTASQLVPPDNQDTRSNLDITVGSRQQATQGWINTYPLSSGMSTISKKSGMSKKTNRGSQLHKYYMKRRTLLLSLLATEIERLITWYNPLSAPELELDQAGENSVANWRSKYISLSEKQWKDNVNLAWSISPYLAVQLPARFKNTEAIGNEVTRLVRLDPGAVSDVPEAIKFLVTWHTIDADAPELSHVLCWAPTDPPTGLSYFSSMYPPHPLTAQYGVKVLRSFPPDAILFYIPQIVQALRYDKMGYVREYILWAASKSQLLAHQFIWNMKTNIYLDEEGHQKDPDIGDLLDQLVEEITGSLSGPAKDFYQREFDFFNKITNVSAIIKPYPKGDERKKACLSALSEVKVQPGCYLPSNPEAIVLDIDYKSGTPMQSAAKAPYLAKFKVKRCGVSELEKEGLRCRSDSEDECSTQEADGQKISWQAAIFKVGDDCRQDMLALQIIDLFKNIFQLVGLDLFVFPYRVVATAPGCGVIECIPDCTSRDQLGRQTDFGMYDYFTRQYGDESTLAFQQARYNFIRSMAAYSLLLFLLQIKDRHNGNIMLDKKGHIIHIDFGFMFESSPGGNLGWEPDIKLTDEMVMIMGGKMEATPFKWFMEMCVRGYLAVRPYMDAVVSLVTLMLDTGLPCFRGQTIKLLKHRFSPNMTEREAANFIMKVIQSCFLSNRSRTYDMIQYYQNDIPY
Sequence of 321 human protein kinases (Homo sapiens, UniProt P52564) (P52564 whole entry): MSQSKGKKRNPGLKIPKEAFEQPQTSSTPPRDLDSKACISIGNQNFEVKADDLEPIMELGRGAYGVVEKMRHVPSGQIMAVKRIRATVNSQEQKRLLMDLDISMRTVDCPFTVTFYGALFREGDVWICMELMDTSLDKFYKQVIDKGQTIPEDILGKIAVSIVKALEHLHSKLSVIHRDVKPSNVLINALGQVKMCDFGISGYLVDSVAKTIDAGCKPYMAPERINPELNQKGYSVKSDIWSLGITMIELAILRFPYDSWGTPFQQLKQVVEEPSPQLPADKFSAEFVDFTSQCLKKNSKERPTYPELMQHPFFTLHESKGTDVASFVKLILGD
Sequence of 321 human protein kinases (Homo sapiens, UniProt P45983) (P45983 whole entry): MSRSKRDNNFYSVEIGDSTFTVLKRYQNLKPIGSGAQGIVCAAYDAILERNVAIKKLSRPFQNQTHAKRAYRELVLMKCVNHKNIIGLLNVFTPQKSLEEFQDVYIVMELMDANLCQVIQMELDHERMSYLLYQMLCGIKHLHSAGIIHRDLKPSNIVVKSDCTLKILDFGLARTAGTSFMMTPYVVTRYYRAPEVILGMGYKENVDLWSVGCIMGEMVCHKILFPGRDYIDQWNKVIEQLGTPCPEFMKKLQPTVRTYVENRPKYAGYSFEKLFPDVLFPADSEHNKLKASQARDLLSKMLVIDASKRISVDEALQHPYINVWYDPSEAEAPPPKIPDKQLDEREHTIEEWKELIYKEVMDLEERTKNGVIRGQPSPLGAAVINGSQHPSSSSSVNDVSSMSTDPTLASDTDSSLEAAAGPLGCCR

`O=C(NOCCOCCOCCOCCC(=O)N1CCN(c2cnc3ccc(-c4cnc(Cl)c(NS(=O)(=O)c5ccc(F)cc5)c4)cc3n2)CC1)c1ccc(F)c(F)c1Nc1ccc(I)cc1F` [LP-182, N-(2-(2-(2-(3-(4-(7-(6-chloro-5-((4-fluorophenyl)sulfonamido)pyridin-3-yl)quinoxalin-2-yl)piperazin-1-yl)-3-oxopropoxy)ethoxy)ethoxy)ethoxy)-3,4-difluoro-2-((2-fluoro-4-iodophenyl)amino)benzamide] was tested, and the “% Inhibition” value [1] was 14%, the inhibition at […] [1] was 13% and the inhibition at […] [2] was 15%. The inhibition at […] [3] was 28%, the inhibition at […] [4] was 24% and the inhibition at […] [5] was 15%. The inhibition at […] [6] was 2.22%, the inhibition at […] [7] was 16% and the inhibition at […] [8] was 22%. For the same molecule, the inhibition at […] [9] was 26% and the “GFP-positive MPL^W515L neutrophil frequency” value [10] was “reduced”.
